Results on 29 compounds are retold here after EP0937460A2, “Use of an antidiarrheal for the manufacture of a medicament for the treatment of inflammatory conditions” (Adolor Corporation, priority 1994, dated 1995).

One may read the inhibition as the share of the control response that was lost under treatment. Broadly, the IC50 is the concentration that gives 50% inhibition.

What all share (format): cell-based
The subject of assay [1] is TNF production. The experiment in a line: Inhibition of TPA-stimulated TNF production in human epidermal keratinocytes (ELISA). Conditions: for activity at 10 µM: epidermal keratinocytes, read-out: TNF LEVEL % Control (LPS alone), Ave. ± S.D. (In an ELISA, binding on a coated surface is turned into a signal by an enzyme label.)
The test system of assay [2] is TNF production. The experiment in a line: Inhibition of LPS-stimulated TNF production in the mouse macrophage line RAW 264.7 (ELISA). Conditions: RAW cells; for activity at 10 µM: RAW264.7, 6 h, read-out: TNF LEVEL % Control (LPS alone), Ave. ± S.D.; for activity at 10 µM / TNF LEVEL % Control (LPS alone); Ave. ± S.D.: DRUG [10 µM], LPS at 10 ng/mL; for inhibition at 10 µM: LPS 10 ng/mL, read-out: inhibition of LPS-stimulated TNF secretion. The procedure: Cells were passaged at confluence by scraping and routinely plated at a density of 0.25 x 10^6 and 0.5 x 10^6 cells per T-75 and T-150, respectively.
Typically, RAW cells were plated at 0.25 x 10^6 cells per well of a 24-well plate, in 0.5 mL media per well on the day prior to experimentation. […] 1%. Drugs were co-administered with the stimulant, LPS. After a 6-hr incubation period with LPS ± drug (n = 3-4), the media from the experimental wells was harvested, the cells were removed by microcentrifugation, and the media assayed for TNF by ELISA. Drugs were screened at 10 µM for their ability to alter TNF production by cells stimulated with 1 µg/mL or 10 ng/mL LPS. Dexamethasone, an anti-inflammatory corticosteroid, served as the reference for inhibition of the LPS response.

The subject of assay [3] is TNF production. Nature of the assay: Inhibition of LPS-stimulated TNF production in the human monocytic cell line THP-1 (ELISA). Conditions: for activity at 10 µM / inhibition at 10 µM: Homo sapiens; for activity at 10 µM: 6 h, read-out: TNF LEVEL % Control (LPS alone), Ave. ± S.D.; for activity at 10 µM / TNF LEVEL % Control (LPS alone); Ave. ± S.D.: THP-1 cells, DRUG [10 µM], LPS 1 µg/mL; for inhibition at 10 µM / effectiveness against LPS-stimulated TNF production (in words): LPS-stimulated THP-1 cells; for inhibition at 10 µM: drug 10 µM, read-out: inhibition of TNF production; for effectiveness against LPS-stimulated TNF production (in words): 10 µM. Here is the method: Cultures were maintained by the addition of fresh growth medium to a T-75 or T-150 flask of cells in suspension, or by pelleting the cells and re-suspending them in the appropriate volume of fresh medium. Maximum cell density was 1.0 x 10^6 cells per mL and cultures were seeded at a minimum density of 0.2 x 10^6 cells per ml.
THP-1 cells were plated into 24-well plates at a density of 1.0 x 10^6 cells per mL in 0.5 mL medium per well. […] For measurement of IL-1α and IL-1β production, THP-1 cells were incubated with 500 ng/mL or 50 ng/mL LPS and incubated for 16 hours. Levels of secreted cytokine were measured in cell supernatants as for TNF. Cell-associated species were measured in cell lysates which were prepared by repetitive freeze-thawing of cells. For in vitro screening, drugs at 10 µM concentration were co-administered with LPS. […] Drug effects on cell viability were assessed by the MTT assay. […] Water-soluble drugs were dissolved in aqueous solutions such as RPMI or deionized H20. The final concentration of DMSO in the incubation medium was at or below 0.01% and that of ethanol was at or below 0. 1%. The effect on cell viability was evaluated by the MTT assay.

Setting [4] is: Homo sapiens, HEK cells, DRUG [10 µM], stimulation by TPA 10 ng/mL.
The mark [5] stands for this setting: Mus musculus, RAW264.7, drug 10 µM.

For the compound `COCCOC(=O)C1=C(C)NC(C)=C(C(=O)OC(C)C)C1c1cccc([N+](=O)[O-])c1` (stereo not shown) [Nimodipine, nimodipine], the results for the activity at 10 µM with TNF production [1] (setting [4]), in the assay on TNF production [2] (Mus musculus) and in the assay on TNF production [3] were 15 ± 3%, 37 ± 3% and 81 ± 4%, respectively.
On to `C[C@@H]1C[C@H]2[C@@H]3CCC4=CC(=O)C=C[C@]4(C)[C@@]3(F)[C@@H](O)C[C@]2(C)[C@@]1(O)C(=O)CO` [Dexamethasone, dexamethasone], for which the inhibition at 10 µM was > 55% in the assay on TNF production [1] (Homo sapiens, Keratinocyte, keratinocytes, TPA 10 ng/mL, drug 10 µM, read-out: inhibition of the response to TPA (TNF production)) and 67% with TNF production [3]. Besides, the activity at 10 µM in the assay with TNF production [1] (setting [4]) turned out to be 48 ± 12%; in the assay on TNF production [2] (Mus musculus) it was 39 ± 27%; in the assay with TNF production [3], 33 ± 14%. Further, in the assay with TNF production [2] (drug 10 µM, LPS dose not stated), the “inhibition of the stimulated production of TNF (decrease of secreted TNF vs LPS alone)” value is recorded as 60%.
On to `COc1ccc(CCN(C)CCC[C@@](C#N)(c2ccc(OC)c(OC)c2)C(C)C)cc1OC` [(-)-Verapamil, (-)-verapamil], for which the “TNF LEVEL % Control (LPS alone); Ave. ± S.D.” value (“TNF LEVEL % Control” for short) in the assay on TNF production [3] was 53±3 % Control.
Consider `NS(=O)(=O)c1cc(C(=O)O)c(NCc2ccco2)cc1Cl` [Furosemide, benzoic acid, 5-(aminosulfonyl)-4-chloro-2-[(2-furanylmethyl)amino]-], for which, in the assay with TNF production [2] (Mus musculus), the activity at 10 µM turned out to be 49 ± 4%. Further, the inhibition at 10 µM with TNF production [2] (setting [5]) was ~49%. Also, the “effectiveness against LPS-stimulated TNF production (in words)” value (from here on “effectiveness”) in the assay on TNF production [2] (drug 10 µM) is reported as “comparable to amiloride”.
As to `NCCCCCCNS(=O)(=O)c1cccc2c(Cl)cccc12` [W-7], the inhibition at 10 µM with TNF production [3] lay in the range of 40 to 50%.
With `CC/C(=C(\c1ccccc1)c1ccc(OCCN(C)C)cc1)c1ccccc1` [tamoxifen], the inhibition at 10 µM in the assay on TNF production [2] (setting [5]) was ~65%.
For the compound `COc1ccc(CCN(C)CCC[C@](C#N)(c2ccc(OC)c(OC)c2)C(C)C)cc1OC` [(+)-Verapamil, (+)-verapamil], the “TNF LEVEL % Control” value in the assay with TNF production [3] turned out to be 51±2 % Control.
As to `NC(N)=NC(=O)c1nc(Cl)c(N2CCCCCC2)nc1N` [hexamethylamiloride], in the assay on TNF production [1] (human keratinocytes, TPA 10 ng/mL, drug 10 µM), the “effect on TPA-stimulated levels of TNF (in words)” value is reported as “several fold higher”. Further, in the assay with TNF production [2] (drug 10 µM), the “effectiveness” value was “tremendous decrease”.
`CCOC(=O)C1(c2ccccc2)CCN(CCC(C#N)(c2ccccc2)c2ccccc2)CC1` [Diphenoxylate, diphenoxylate]: the activity at 10 µM in the assay on TNF production [1] (Homo sapiens) was 68 ± 10%.
Take `CSc1ccc2c(c1)N(CCC1CCCCN1C)c1ccccc1S2` (stereo not shown) [thioridazine]: the inhibition at 10 µM in the assay with TNF production [2] (setting [5]) is 60 to 70%.
For `COC(=O)C1=C(C)NC(C)=C(C(=O)OC(C)(C)CN(C)CCC(c2ccccc2)c2ccccc2)C1c1cccc([N+](=O)[O-])c1` (stereo not shown) [Rec 15/2375], the “TNF LEVEL % Control” value with TNF production [2] stood at 33± 1 % Control; in the assay with TNF production [3], 57±15 % Control.
`CCCCOc1cc(CC2CNC(=O)N2)ccc1OC` (stereo not shown) [RO 20-1724] returned an IC50 in the assay with TNF production [2] (Mus musculus, RAW264.7) of 1 to 10 nM. In addition, the inhibition at 10 µM in the assay on TNF production [2] (setting [5]) worked out at 47%; in the assay on TNF production [3] it was 55%. The “TNF LEVEL % Control” value in the assay on TNF production [2] is reported as 47±23 % Control; with TNF production [3], 45±34 % Control.
`CC(C)(C)NCC(O)c1cc(O)cc(O)c1` (stereo not shown) [Terbutaline, terbutaline]: the activity at 10 µM was 36 ± 8% in the assay with TNF production [1] (setting [4]), 33 ± 9% in the assay on TNF production [2] (Mus musculus) and 12 ± 4% in the assay with TNF production [3].
As to `CC(=O)CCCCn1c(=O)c2c(ncn2C)n(C)c1=O` [Pentoxifylline, pentoxifylline], the activity at 10 µM is 43 ± 2% with TNF production [2] (Mus musculus) and ≥ 100% in the assay on TNF production [3]. The inhibition at 10 µM in the assay on TNF production [2] (setting [5]) stood at 57%.
Turning to `O=C1CCC(N2C(=O)c3ccccc3C2=O)C(=O)N1` (stereo not shown) [Thalidomide], the activity at 10 µM is ≥ 100% in the assay with TNF production [1] (setting [4]), 67 ± 37% with TNF production [2] (Mus musculus) and 78 ± 9% in the assay on TNF production [3].
In the case of `CC(C)COCC(CN(Cc1ccccc1)c1ccccc1)N1CCCC1` (stereo not shown) [Bepridil, 1-Pyrrolidieneethanamine, b-[(2-methylpropoxy)methyl]-N-phenyl-N-(phenylmethyl)], the activity at 10 µM in the assay on TNF production [2] (Mus musculus) was found to be 40 ± 4%; in the assay on TNF production [3], 77 ± 9%.
As for `COc1ccc([C@@H]2Sc3ccccc3N(CCN(C)C)C(=O)[C@@H]2OC(C)=O)cc1` [Diltiazem, 1,5-Benzothiazepin-4(5H)-one, 3-(acetyloxy)-5-[2-(dimethylamino)ethyl]-2,3-dihydro-2-(4-methoxyphenyl)-, (2S-cis)-], the activity at 10 µM in the assay with TNF production [2] (Mus musculus) is 47 ± 1%. Besides, in the assay with TNF production [3], the activity at 10 µM came out at 86 ± 16% and the “effectiveness” value is listed as “much less effective”.
Consider `CC(=O)S[C@@H]1CC2=CC(=O)CC[C@]2(C)[C@H]2CC[C@@]3(C)[C@@H](CC[C@@]34CCC(=O)O4)[C@H]12` [Spironolactone, spironolactone], for which, in the assay on TNF production [3], the activity at 10 µM was 54 ± 8%, the inhibition at 10 µM was determined as 46% and the “effectiveness” value is “as effective as amiloride”.
Take `COc1ccc2c(c1)CCC(c1ccccc1)=C2c1ccc(OCCN2CCCC2)cc1` [nafoxidine]: the inhibition at 10 µM in the assay with TNF production [2] (setting [5]) is ~65%.
Same read-out and setting: the value for `O=C1c2c(O)cccc2Cc2cccc(O)c21` [dithranol] was 67%.
Consider `Clc1ccc(C(c2ccc(Cl)cc2)n2cc[n+](CC(OCc3ccc(Cl)cc3Cl)c3ccc(Cl)cc3Cl)c2)cc1` (stereo not shown) [calmidazolium], for which, in the assay on TNF production [3], the inhibition at 10 µM was in the range of 40 to 50%.
On to `CCCCNc1cc(C(=O)O)cc(S(N)(=O)=O)c1Oc1ccccc1` [bumetanide], for which the “effectiveness” value in the assay on TNF production [2] (drug 10 µM) was “minimal inhibition”.
Regarding `COC(=O)C1=C(C)NC(C)=C(C(=O)OCCN(C)Cc2ccccc2)C1c1cccc([N+](=O)[O-])c1` (stereo not shown) [Nicardipine, 3,5-Pyridinedicarboxylic acid, 1,4-dihydro-2,6-dimethyl-4-(3-nitrophenyl)-, methyl 2-[methyl(phenylmethyl)amino]ethyl ester], the activity at 10 µM in the assay with TNF production [2] (Mus musculus) came out at 59 ± 35%; in the assay on TNF production [3], 44 ± 1%. Moreover, the inhibition at 10 µM with TNF production [3] was determined as 56%.
For the compound `NCC(O)c1ccc(O)c(O)c1` (stereo not shown) [Arterenol], the “TNF LEVEL % Control” value in the assay on TNF production [1] (HEK cells, DRUG [10 µM], stimulation by TPA 10 ng/mL) came to 47±10 % Control; with TNF production [2], 38±4 % Control; in the assay with TNF production [3] it was 1±0.2 % Control.
For the compound `COC(=O)C1=C(C)NC(C)=C(C(=O)OC(C)C)C1c1cccc2nonc12` (stereo not shown) [Isradipine, 3,5-Pyridinecarboxylic acid, 4-(4-benzofurazanyl)-l,4-dihydro-2,6-dimethyl, methyl 1-methylethyl ester], the activity at 10 µM with TNF production [1] (setting [4]) came out at 60 ± 7%; in the assay with TNF production [3], 77 ± 8%. In addition, the figures for the “effectiveness” value in the assay on TNF production [2] (drug 10 µM) and in the assay on TNF production [3] were “as effective as dexamethasone” and “much less effective”, respectively.
In the case of `Fc1ccc(C(c2ccc(F)cc2)N2CCN(C/C=C/c3ccccc3)CC2)cc1` [flunarizine, Peperizine, 1-[bis(4-fluorophenyl)methyl]-4-(3-phenyl-2-propenyl)-, (E)], the inhibition at 10 µM in the assay on TNF production [2] (setting [5]) worked out at 63%.
Regarding `CN(C)c1nc(N)c(C(=O)N=C(N)N)nc1Cl` [dimethylamiloride], the “effectiveness” value in the assay with TNF production [2] (drug 10 µM) is recorded as “same extent of inhibition as amiloride”.
As for `COC(=O)C1=C(C)NC(C)=C(C(=O)OC)C1c1ccccc1[N+](=O)[O-]` [Nifedipine], the activity at 10 µM in the assay on TNF production [1] (setting [4]) amounted to 88 ± 40%; with TNF production [2] (Mus musculus), 79 ± 24%; in the assay with TNF production [3], 119%.
Consider `O=c1[nH]c2ccccc2n1C1CCN(CCCC(c2ccc(F)cc2)c2ccc(F)cc2)CC1` [pimozide], for which the inhibition at 10 µM in the assay on TNF production [2] (setting [5]) lay within 60 to 70%.
